Structures can show the parent of a compound that is named as a salt.
What follows are molecules tested against T1, human NPY Y5 receptor (Homo sapiens, UniProt Q15761) (assay: FLIPR/Ca2+ functional activity at recombinant human NPY Y5 receptor). Conditions: HEK 293 signal-hNPY Y5/G16z49 cells; inhibition of calcium release by PYY at EC80; Cheng-Prusoff; read-out: fpKi.
T1 construct: expressed in transfected cells; host or cells: HEK293 (cell line HEK 293 signal-hNPY Y5/G16z49)
T1 sequence (Q15761 1-445): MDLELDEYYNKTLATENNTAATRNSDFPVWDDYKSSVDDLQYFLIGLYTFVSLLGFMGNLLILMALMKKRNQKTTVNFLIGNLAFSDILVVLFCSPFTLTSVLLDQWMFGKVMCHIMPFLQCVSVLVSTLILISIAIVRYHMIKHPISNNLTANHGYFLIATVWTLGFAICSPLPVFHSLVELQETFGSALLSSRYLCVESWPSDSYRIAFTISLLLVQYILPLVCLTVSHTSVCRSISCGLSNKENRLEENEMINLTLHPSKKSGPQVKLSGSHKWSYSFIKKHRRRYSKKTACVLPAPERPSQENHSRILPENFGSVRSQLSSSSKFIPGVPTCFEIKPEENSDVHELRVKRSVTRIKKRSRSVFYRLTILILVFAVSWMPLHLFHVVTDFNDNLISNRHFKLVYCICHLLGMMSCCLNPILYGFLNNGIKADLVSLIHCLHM
Format: cell-based
Description: The functional activity of the compounds of the invention for the NPY Y5 receptor may be determined by the FLIPR/Ca^2+ assay as described below. Such potency is typically calculated from the IC50 obtained in FLIPR experiments as the concentration of a compound necessary to decrease 50% of the calcium release following cells exposure to a concentration of PYY eliciting 80% response (i.e. EC80), and is reported as a “fKi” value calculated by the following equation: […]
where EC80 and EC50 corresponding to the agonist (PYY) concentrations that eliciting 80% and 50% response, respectively (corresponding to the Cheng and Prusoff equation). In the context of the present invention pfKi values (corresponding to the […] of fKi) are used instead of fKi; pfKi results are only estimated to be accurate to about 0.3-0.5.
The functional activity at the human NPY Y5 receptor stably expressed in HEK293 cells was assessed using FLIPR/Ca^2+ methodology (cell line name: HEK 293 signal-hNPY Y5/G16z49). The assay is configured to re-direct receptor-mediated signalling to the calcium release from intracellular stores via the promiscuous Gal 6z49 protein. PYY (peptide YY) is an endogenous agonist and can activate the receptor, thereupon causing an increase in the level of calcium in the cells sensed by Fluo4-AM and measured by FLIPR. Antagonist effects are monitored by the blockade or decrease in calcium release once cells co-expressing hNPY Y5 receptor and Ga16z49 are exposed to a concentration of PYY eliciting 80% response (i.e. EC80). A non-linear, 4 parameter logistic curve-fit of the data generated pIC50 value. Applying the Cheng-Prusoff equation to antagonist concentration-response for inhibition of fixed PYY concentration yielded the fpKi values.
Cells are cultured in DMEM/F12 supplemented with 10% FBS, 2 mM Glutamine, 200 μg/ml hygromycin B and 500 μg/ml G418. The day before a FLIPR experiment, cells are plated out into 384-well Poly-D-Lysine coated FLIPR plates at a density of 200'000 cells/ml corrects to give 10'000 cells per 50 μL per well using medium without antibiotics. On the day of experiment, cells are washed with an assay buffer containing 20 mM HEPES/NaOH, 145 mM NaCl, 5 mM KCl, 1 mM MgCl2, 2 mM CaCl2, 1 g/L D-glucose and 2.5 mM probenecid, pH 7.3 and loaded with 2 μM Fluo-4 AM for 60 min at 37° C. and 5% CO2. The excess of dye solution is removed by washing cells with buffer. Compound solutions, prepared by serially diluting compounds in neat DMSO and then a final 1:50 dilution step in assay buffer added with 0.05% pluronic acid, are added and incubated with the loaded cells for 30 min at 37° C. and 5% CO2.
Cells are then put in the FLIPR for the stimulus addition corresponding to a concentration of PYY eliciting 80% of the response. The response of cells to the agonist is fast and measured for 2 min after PYY addition.

Ki [pM] | Molecule
≤ 100 | O=C1O[C@]2(CC[C@H](CNc3ccc(-c4cc(F)cc(F)c4)nn3)CC2)CN1c1cccnn1 [Example 4-3, (Trans)-8-({[6-(3,5-difluorophenyl)-3-pyridazinyl]amino}methyl)-3-(3-pyridazinyl)-1-oxa-3-azaspiro[4.5]decan-2-one Dihydrochloride]
≤ 1000 | O=C1O[C@]2(CC[C@H](CNc3ccc(-c4ccccc4)nn3)CC2)CN1c1cccnn1 [Example 4-38, (Trans)-8-{[(6-phenyl-3-pyridazinyl)amino]methyl}-3-(3-pyridazinyl)-1-oxa-3-azaspiro[4.5]decan-2-one Dihydrochloride]
≤ 100 | Cc1cc(N2C[C@]3(CC[C@@H](CNc4ccc(-c5ccccc5C)nn4)CC3)OC2=O)ccn1 [Example 4-39, (Trans)-8-({[6-(2-methylphenyl)-3-pyridazinyl]amino}methyl)-3-(2-methyl-4-pyridinyl)-1-oxa-3-azaspiro[4.5]decan-2-one Dihydrochloride]
≤ 100 | O=C1O[C@]2(CC[C@H](CNc3ccc(Oc4ccccc4OC(F)(F)F)nn3)CC2)CN1c1cccnn1 [Example 4-56, (Trans)-3-(3-pyridazinyl)-8-({[6-({2-[(trifluoromethyl)oxy]phenyl}oxy)-3-pyridazinyl]amino}methyl)-1-oxa-3-azaspiro[4.5]decan-2-one]
≤ 100 | O=C1O[C@]2(CC[C@H](CNc3ccc(-c4cccc(C(F)(F)F)c4)nn3)CC2)CN1c1cccnn1 [Example 4-40, (Trans)-3-(3-pyridazinyl)-8-[({6-[3-(trifluoromethyl)phenyl]-3-pyridazinyl}amino)methyl]-1-oxa-3-azaspiro[4.5]decan-2-one Hydrochloride]
≤ 316 | O=C1O[C@]2(CC[C@H](CNc3ccc(-c4ccccc4F)nn3)CC2)CN1c1cccnc1F [Example 4-7, (Trans)-8-({[6-(2-fluorophenyl)-3-pyridazinyl]amino}methyl)-3-(2-fluoro-3-pyridinyl)-1-oxa-3-azaspiro[4.5]decan-2-one Hydrochloride]

Same assay, conditions: assay not given; towards NPY Y5 receptor

Molecule | activity at the highest concentration set by the experiment
Cl.Cl.O=C1OC2(CCC(CNc3ccc(C(F)(F)F)nc3)CC2)CN1c1cccnc1 (stereo not drawn) [Example 1-55, (Trans)-3-(3-pyridinyl)-8-({[6-(trifluoromethyl)-3-pyridinyl]amino}methyl)-1-oxa-3-azaspiro[4.5]decan-2-one Dihydrochloride] | don't show activity
O=C1OC2(CCC(CNc3ncc(Br)cn3)CC2)CN1c1ccccn1 (stereo not drawn) [Example 3-7, (Trans)-8-{[(5-bromo-2-pyrimidinyl]amino}methyl)-3-(2-pyridinyl)-1-oxa-3-azaspiro[4.5]decan-2-one] | don't show activity
Cn1ccnc1-c1cnc(NCC2CCC3(CC2)CN(c2ccccn2)C(=O)O3)nc1 (stereo not drawn) [Example 3-6, (Trans)-8-({[5-(1-methyl-1H-imidazol-2-yl)-2-pyrimidinyl]amino}methyl)-3-(2-pyridinyl)-1-oxa-3-azaspiro[4.5]decan-2-one] | don't show activity
O=C1OC2(CCC(CNc3ncc(-c4ccnnc4)cn3)CC2)CN1c1ccccn1 (stereo not drawn) [Example 3-9, (Trans)-8-({[5-(4-pyridazinyl)-2-pyrimidinyl]amino}methyl)-3-(2-pyridinyl)-1-oxa-3-azaspiro[4.5]decan-2-one] | don't show activity
Cl.Cl.O=C1O[C@]2(CC[C@H](CNc3ccc(N4CCOCC4)nc3)CC2)CN1c1ccccn1 [Example 1-57, (Trans)-8-({[6-(4-morpholinyl)-3-pyridinyl]amino}methyl)-3-(2-pyridinyl)-1-oxa-3-azaspiro[4.5]decan-2-one.dihydrochloride] | don't show activity
Cl.O=C1OC2(CCC(CNc3cc(-c4ccccc4)ccn3)CC2)CN1c1cccnn1 (stereo not drawn) [Example 1-39, (Trans)-8-{[(4-phenyl-2-pyridinyl)amino]methyl}-3-(3-pyridazinyl)-1-oxa-3-azaspiro[4.5]decan-2-one hydrochloride] | don't show activity
(Trans)-8-({[4-(1-pyrimidinyl)-2-pyrimidinyl]amino}methyl)-3-(3-pyridazinyl)-1-oxa-3-azaspiro[4.5]decan-2-one Dihydrochloride [Example 3-11] | don't show activity
Cl.O=C1OC2(CCC(CNc3nccc(OCc4ccccc4)n3)CC2)CN1c1cccnn1 (stereo not drawn) [Example 3-12, (Trans)-8-[({4-[(phenylmethyl)oxy]-2-pyrimidinyl}amino)methyl]-3-(3-pyridazinyl)-1-oxa-3-azaspiro[4.5]decan-2-one hydrochloride] | don't show activity

The next lines start with the values.

activity at the highest concentration set by the experiment | Molecule
don't show activity | CC(C)(C)OCCOc1ccc(NCC2CCC3(CC2)CN(c2cccnn2)C(=O)O3)nn1.Cl.Cl (stereo not drawn) [Example 4-10, (Trans)-8-({[6-({2-[(1,1-dimethylethyl)oxy]ethyl}oxy)-3-pyridazinyl]amino}methyl)-3-(3-pyridazinyl)-1-oxa-3-azaspiro[4.5]decan-2-one dihydrochloride]
don't show activity | Cl.O=C1OC2(CCC(CNc3nsc4ccccc34)CC2)CN1c1cccnn1 (stereo not drawn) [Example 5-5, (Trans)-8-[(1,2-benzisothiazol-3-ylamino)methyl]-3-(3-pyridazinyl)-1-oxa-3-azaspiro[4.5]-decan-2-one Hydrochloride]
don't show activity | O=C1OC2(CCC(CNc3ccc(Cl)nn3)CC2)CN1c1ccccn1 (stereo not drawn) [Example 4-12, (Trans)-8-{[(6-chloro-3-pyridazinyl)amino]methyl}-3-(2-pyridinyl)-1-oxa-3-azaspiro[4.5]-decan-2-one]

— patent publication US20090203705A1, “Spiro Compounds As NPY Y5 Receptor Antagonists” (priority 2008, published 2009)
